# Measured values: patent US20060078494A1, “Use of inhibitors of 24-hydroxylase in the treatment of cancer” (Sapphire Therapeutics, Inc., priority 2004, published 2006)
# Columns and labels:
# 24-hydroxylase = target: T1, 24-hydroxylase (Homo sapiens, UniProt Q07973); conditions: described by Kahraman et al., J. Med. Chem. 47:6854-6863 (2004); cited from earlier work
# T1 sequence (Q07973 36-514): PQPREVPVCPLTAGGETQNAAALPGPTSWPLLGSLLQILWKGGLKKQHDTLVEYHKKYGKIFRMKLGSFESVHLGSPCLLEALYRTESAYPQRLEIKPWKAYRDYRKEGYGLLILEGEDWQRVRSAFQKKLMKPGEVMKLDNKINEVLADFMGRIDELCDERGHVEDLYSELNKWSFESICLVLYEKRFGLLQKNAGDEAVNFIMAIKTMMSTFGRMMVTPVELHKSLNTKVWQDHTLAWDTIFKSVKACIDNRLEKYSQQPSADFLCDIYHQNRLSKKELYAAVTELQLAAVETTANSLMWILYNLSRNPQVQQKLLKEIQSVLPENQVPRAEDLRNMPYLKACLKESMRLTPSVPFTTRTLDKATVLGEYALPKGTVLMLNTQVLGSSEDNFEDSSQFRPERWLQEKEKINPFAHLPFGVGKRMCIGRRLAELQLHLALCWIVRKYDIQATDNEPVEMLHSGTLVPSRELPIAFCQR
# [1] = system: Human RL B-lymphoma cells; assay: Human RL B-lymphoma cells in SCID mice; type: in vivo; conditions: expected
# Description: Human RL B-lymphoma cells (Beckwith et al. (1990) J. Nat. Cancer Inst. 82, 501) are maintained in vitro by passage in growth medium. The cells are washed thoroughly in PBS to remove culture components. SCID mice are injected with one million human lymphoma cells via the tail vein in 100 microliters (μl). 24-hydroxylase inhibitor treatment is initiated the following day by daily intraperitoneal (i.p.) injection of 3 mg/kg 24-hydroxylase inhibitor (VID400), alone or in combination with doxorubicin at 5 mg/kg, or vehicle. Mice are monitored for survival and significant morbidity. […] Depending on the lymphoma cell line employed, the untreated mice typically die within 3 to 6 weeks.
# [2] = system: C57BL6 murine ID8 ovarian carcinoma cell line; assay: Mouse syngeneic model of ovarian carcinoma (ID8 VEGF164/GFP); type: in vivo, C57BL6 mice; conditions: expected; for tumor growth delay compared with vehicle control: single agent (inhibitor 2 mg/kg; cisplatin 2 or 6 mg/kg)
# Description: The efficacy of a 24-hydroxylase inhibitor, alone or in combination with a chemotherapeutic agent is tested in a mouse syngeneic model of ovarian carcinoma using methods as described in Zhang et al., (Am. J. of Pathol. (2002) 161:2295-2309). Briefly, using retroviral transfection and fluorescence-activated cell sorting, a C57BL6 murine ID8 ovarian carcinoma cell line is generated that stably overexpresses the murine VEGF164 isoform and the enhanced green fluorescence protein (GFP). The retroviral construct containing VEGF164 and GFP cDNAs is then transfected into BOSC23 cells. The cells are analyzed by FACS cell sorting, and cells showing high GFP fluorescence are identified and isolated. The ID8 VEGF164/GFP transfected cells are cultured to subconfluence and prepared in a single-cell suspension in phosphate buffer saline (PBS) and cold […] (BD Biosciences, Bedford, Mass.). Six to eight week old female C57BL6 mice are injected subcutaneously in the flank with 5×10^6 transfected or untransfected (control) cells. Animals are sacrificed eight weeks after inoculation and evaluated for tumor growth. Mice are treated with a 24-hydroxylase inhibitor (VID 400/RC-8800) beginning 3-14 days following tumor implantation. Mice are treated in the following groups, with 5 mice for each group:
# The agents are administered on a daily basis for 14 days. Animals are monitored daily for body weight, and significant morbidity.
# 24-hydroxylase (CYP24) = target: T2, 24-hydroxylase (CYP24) (Homo sapiens, UniProt Q07973); conditions: identified by Schuster et al., J. Cell. Biochem. 88:372-380 (2003); cited from earlier work
# T2 construct: confluent cultures of human keratinocytes are isolated from adult skin in serum-free keratinocyte growth medium; endogenous in cells; host or cells: primary human keratinocytes from adult skin
# T2 sequence (Q07973 36-514): T1 sequence (Q07973 36-514)
structure (smiles),measurement,setting,value
C=C1/C(=C\C=C2/CCCC3(C)C2CC[C@@H]3[C@H](C)CCS(=N)(=O)c2ccc(F)cc2)C[C@@H](O)C[C@@H]1O (stereo partly drawn) [Formula VI],potency as 24-hydroxylase inhibitor (structure activity relationships),24-hydroxylase,slightly less potent
"COc1cccc2c1C(=O)c1c(O)c3c(c(O)c1C2=O)C[C@@](O)(C(=O)CO)C[C@@H]3O[C@H]1C[C@H](N)[C@H](O)[C@H](C)O1 [doxorubicin, reference compound]",inhibition in tumor growth,"[1]; doxorubicin 5 mg/kg alone, SCID mice, RL B-lymphoma",significant inhibition
"O=C(NC[C@@H](c1ccccc1)n1ccnc1)c1ccc(-c2ccc(Cl)cc2)cc1 [(R)-VID400, 2-(R)-4′-Chlorobiphenyl-4-carboxylic acid (2-imidazol-1-yl-2-phenyl-ethyl)-amide]",tumor growth delay,"[2]; 24-hydroxylase inhibitor 2 mg/kg + cisplatin 2 or 6 mg/kg, daily for 14 days, vs cisplatin alone at same dosage or inhibitor alone",delay longer than cisplatin alone
same,body weight,"[2]; 24-hydroxylase inhibitor 2 mg/kg + cisplatin, vs vehicle or single therapy controls of same dosage",maintain body weight significantly more
same,tumor growth delay compared with vehicle control,[2]; daily for 14 days,significant delay
same,inhibition of 24-hydroxylase,24-hydroxylase (CYP24),potent inhibitors
same,inhibition in tumor growth,[1]; VID400 3 mg/kg i.p. daily in combination with doxorubicin 5 mg/kg,highest growth inhibition
C=C1/C(=C\C=C2/CCCC3(C)C2CC[C@@H]3[C@H](C)CCS(=N)(=O)c2ccccc2)C[C@@H](O)C[C@@H]1O (stereo partly drawn) [Formula V],potency as 24-hydroxylase inhibitor (structure activity relationships),24-hydroxylase,most potent
"N.N.[Cl][Pt][Cl] [Cisplatin, reference compound]",tumor growth delay compared with vehicle control,[2]; daily for 14 days,significant delay
